Measured values as given in patent publication US4539429A, “Substituted aminophenylalkyl ketones, their preparation and use” (Sterling Drug Inc., priority 1983, dated 1985).
Where two headings read alike, the source gives them in different places.

What was measured:
cyclooxygenase = target: T1, cyclooxygenase (Rattus norvegicus, UniProt Q63921); test: Inhibition of cyclooxygenase from rat basophilic leukemia (RBL-1) cells (formation of PGD2, C1); type: biochemical; conditions: cyclooxygenase product PGD2 (C1); for inhibition at 1 µM: read-out: % Inhibition of cyclooxygenase (Cl) formation
T1 construct: Single cell suspensions of RBL-1 cells are homogenized to obtain the microsomal fraction containing lipoxygenase and cyclooxygenase; endogenous in cells; host or cells: RBL-1 (rat basophilic leukemia) cells
T1 sequence (Q63921 27-602): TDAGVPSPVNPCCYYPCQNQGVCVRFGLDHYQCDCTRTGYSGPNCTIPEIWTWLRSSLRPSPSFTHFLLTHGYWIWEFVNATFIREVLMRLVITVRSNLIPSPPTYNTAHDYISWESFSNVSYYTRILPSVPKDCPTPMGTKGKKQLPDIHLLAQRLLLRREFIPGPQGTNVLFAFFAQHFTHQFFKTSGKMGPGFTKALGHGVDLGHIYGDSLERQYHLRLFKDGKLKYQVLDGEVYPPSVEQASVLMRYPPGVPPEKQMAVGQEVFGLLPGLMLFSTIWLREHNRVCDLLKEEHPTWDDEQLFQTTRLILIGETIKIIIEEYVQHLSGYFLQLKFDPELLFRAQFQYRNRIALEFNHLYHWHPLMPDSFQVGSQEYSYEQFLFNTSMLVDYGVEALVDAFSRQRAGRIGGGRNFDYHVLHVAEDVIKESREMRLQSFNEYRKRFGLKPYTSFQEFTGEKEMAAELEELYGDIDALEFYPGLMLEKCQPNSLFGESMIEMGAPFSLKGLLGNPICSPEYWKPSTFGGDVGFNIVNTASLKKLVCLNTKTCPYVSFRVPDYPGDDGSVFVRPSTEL
Method: (§1) The primary screening test used is a determination of the inhibition of lipoxygenase and cyclooxygenase derived from rat basophilic leukemia (RBL-1) cells. The test was carried out according to the following procedure:
(§2) Single cell suspensions of RBL-1 cells are homogenized to obtain the microsomal fraction containing lipoxygenase and cyclooxygenase. Test compounds are added to the enzyme-containing homogenate for a 5 min preincubation period at 37° C. prior to the additon of ^14 C-arachidonic acid substrate. Following incubation at 37° C. for 15 min, the reaction is stopped by the addition of 2M formic acid and the enzyme-substrate products are extracted into chloroform. An aliquot of the extract is evaporated to dryness, reconstituted in ether to 1/10 original volume, spotted on thin layer chromatography plates and chromatographed. The peak areas of radioactivity representing the products are located by scanning the plates. The quantity of products formed is estimated by measuring the height of the radioactivity peaks observed on the chromatographic scans. Alternatively, the areas of radioactivity are scraped from the plate and the ^14 C quantitated by scintillation counting.

lipoxygenase = target: T2, lipoxygenase (Rattus norvegicus, UniProt P12527); test: Inhibition of lipoxygenase from rat basophilic leukemia (RBL-1) cells (formation of L1 5,12-di-HETE and L2 5-HETE); type: biochemical
T2 construct: Single cell suspensions of RBL-1 cells are homogenized to obtain the microsomal fraction containing lipoxygenase and cyclooxygenase; endogenous in cells; host or cells: RBL-1 (rat basophilic leukemia) cells
T2 sequence (P12527 1-673): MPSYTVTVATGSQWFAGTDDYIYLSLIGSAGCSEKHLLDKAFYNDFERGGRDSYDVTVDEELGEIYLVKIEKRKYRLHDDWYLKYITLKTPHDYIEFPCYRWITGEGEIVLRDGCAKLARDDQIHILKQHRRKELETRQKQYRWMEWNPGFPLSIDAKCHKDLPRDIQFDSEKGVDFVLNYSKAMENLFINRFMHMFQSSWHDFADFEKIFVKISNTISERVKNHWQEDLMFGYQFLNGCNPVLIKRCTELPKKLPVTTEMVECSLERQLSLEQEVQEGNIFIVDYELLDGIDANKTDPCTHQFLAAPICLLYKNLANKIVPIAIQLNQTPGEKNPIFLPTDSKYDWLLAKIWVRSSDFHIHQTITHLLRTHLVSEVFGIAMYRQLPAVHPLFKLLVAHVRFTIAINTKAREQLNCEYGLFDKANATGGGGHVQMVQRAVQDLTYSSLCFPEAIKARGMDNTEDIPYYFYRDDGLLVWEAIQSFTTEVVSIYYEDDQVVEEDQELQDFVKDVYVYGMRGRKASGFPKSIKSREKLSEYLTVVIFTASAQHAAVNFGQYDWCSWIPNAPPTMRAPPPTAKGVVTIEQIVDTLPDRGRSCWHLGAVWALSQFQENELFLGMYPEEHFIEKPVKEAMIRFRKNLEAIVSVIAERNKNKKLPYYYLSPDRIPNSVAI
Method: as §1, §2

[1] = test system: SRS-A component of immunologically induced bronchoconstriction; test: Effect on the SRS-A component of immunologically induced bronchoconstriction in guinea pigs; type: in vivo, guinea pig
Method: The test was carried out according to the following procedure:
Two weeks after immunization with egg albumin, guinea pigs are prepared for bronchoconstriction determination. One hour prior to antigen challenge, each animal is dosed orally with indomethacin and chlorpheniramine. Animals are anesthetized with sodium pentobarbital, the trachea cannulated and the animal artifically respired. Arachidonic acid is administered intravenously prior to antigen challenge. The resulting bronchoconstriction is recorded by the standard lung overflow procedure and the peak increase in intratracheal pressure (mm Hg) over a 10 minute observation period is recorded. Compounds are evaluated for their ability to prevent the increased intratracheal pressure in an experimental group of animals as compared to the medicated (indomethacin+chlorpheniramine+arachidonic acid) control group. The results are expressed in terms of percent inhibition or as ED50 values (effective dose in 50% of the animals).

Row | inhibition at 1 µM (lipoxygenase; 1 μM, L1 = 5,12-di-HETE, read-out: % Inhibition of lipoxygenase (L1) formation) | inhibition at 1 µM (lipoxygenase; 1 μM, L2 = 5-HETE, read-out: % Inhibition of lipoxygenase (L2) formation) | Compound | inhibition at 1 µM (cyclooxygenase) | IC50 (cyclooxygenase) | IC50 (lipoxygenase) | inhibition at 1 µM (lipoxygenase; read-out: % Inhibition of lipoxygenase (L1) formation) | inhibition at 1 µM (lipoxygenase; read-out: % Inhibition of lipoxygenase (L2) formation) | ED50 ([1]; Cavia porcellus, iv, indomethacin + chlorpheniramine pretreated, arachidonic acid i.v. before antigen challenge, read-out: In vivo Guinea Pig ED50) | In vivo Guinea Pig % inhib. ([1]; at 1 mg/kg orally, increased intratracheal pressure vs medicated control group)
1 | 61% | 72% | CC(=O)c1ccccc1Nc1ccc(O)cc1 [Example 2c, 1-[2-(4-Hydroxyphenylamino)phenyl]ethanone] | 9% | – | – | – | – | – | –
2 | – | – | COc1ccc(Nc2ccc(O)cc2)c(C(C)=O)c1 [Example 1c, 1-[2-(4-Hydroxyphenylamino)-5-methoxyphenyl]ethanone] | 36% | > 1000 nM | 70 nM | 88% | 88% | 2.7 mg/kg | 52%
